Experimental data taken from patent US10662169B2, “Catechol derivative and pharmaceutical composition comprising the same” (AUTOPHAGYSCIENCES INC., priority 2015, dated 2020).

Key:
[1] = tested on: acute liver injury induced by carbon tetrachloride; assay: Model of acute liver injury induced by carbon tetrachloride; format: in vivo, C57BL/6 mice; details: 50 mg/kg orally three times every 12 hours, then CCl4 5 mL/kg i.p.; autopsy 24 hours later; FIG. 4
Protocol: Attempts were made to confirm the inhibitory effect of autophagy activator on liver injury in an animal model of induced liver fibrosis due to acute liver injury. In order to confirm the effect of inhibiting acute liver injury, carbon tetrachloride (CCl4) was administered to C57BL/6 mice to induce acute liver injury, and then the compound according to the present invention was administered. It was then confirmed whether liver injuries were inhibited. Five-week-old female C57BL/6 mice were introduced and acclimated for one week, and then divided into six groups respectively; a normal control group, a group to which carbon tetrachloride was administered, and groups to which the compounds according to the present invention (Examples 1, 2, 5, and 7) were administered. Each of the compounds according to the present invention was dissolved in corn oil and administered orally three times at a dose of 50 mg/kg (body weight) every 12 hours. 30 Minutes after final oral administration, carbon tetrachloride was intraperitoneally administered at a dose of 5 mL/kg (body weight) and then autopsied 24 hours later top remove a sample of liver tissue under autopsy and fix it, thereby preparing a tissue specimen. After preparation of tissue specimen slides, H & E staining was performed and liver injuries were confirmed with a microscope.

[2] = tested on: liver fibrosis induced by carbon tetrachloride; assay: Model of liver fibrosis induced by carbon tetrachloride (chronic); format: in vivo, C57BL/6 mice; details: for liver fibrosis, Masson's Trichrome staining: CCl4 0.8 ml/kg i.p., FIG. 10
Protocol: In order to confirm the effect of inhibiting liver fibrosis caused by chronic liver injury, carbon tetrachloride was administered to C57BL/6 mice to induce chronic liver injury, thereby inducing liver fibrosis, and then the compounds according to the present invention were administered. It was then confirmed whether chronic liver injuries were inhibited. Five-week-old female C57BL/6 mice were introduced and acclimated for one week, and then divided into six groups respectively; a normal control group, a group to which carbon tetrachloride was administered, and groups to which the compounds according to the present invention (Examples 1 and 5) were administered. Carbon tetrachloride was dissolved in corn oil and administered intraperitoneally at a dose of 0.8 ml/kg (body weight) twice a day, for a total of 8 days. Twenty-four hours after the final oral administration, an autopsy was performed to remove a sample of liver tissue and fix it, thus preparing a tissue specimen. After preparation of tissue specimen slides, H & E staining was performed, and liver tissue injury as well as inflammatory cell infiltration in liver tissue were confirmed by microscopy. In addition, Masson's Trichrome staining was performed, and collagen deposition in the liver tissue was confirmed by microscope.

[3] = tested on: liver fibrosis induced by thioacetamide; assay: Model of liver fibrosis induced by thioacetamide (TAA); format: in vivo, C57BL/6 mice; details: TAA 200 mg/kg i.p. three times a week for 6 weeks; compound 50 mg/kg orally once a day for 8 days; FIG. 7
Protocol: In order to confirm the effect of inhibiting liver fibrosis caused by chronic liver injury, thioacetamide (TAA) was administered to C57BL/6 mice to induce chronic liver injury, thereby inducing liver fibrosis, and then the compounds according to the present invention were administered. It was then confirmed whether chronic liver injuries were inhibited. Five-week-old female C57BL/6 mice were introduced and acclimated for one week, and then divided into six groups respectively; a normal control group, a group to which thioacetamide was administered, and groups to which the compounds according to the present invention (Examples 2, 5 and 7) were administered. Thioacetamide was dissolved in phosphate-buffered physiological saline and administered intraperitoneally at a dose of 200 mg/kg (body weight) three times a week, for a total of 6 weeks. Three compounds according to the present invention was dissolved in corn oil […] and administered orally at a dose of 50 mg/kg (body weight) once a day for a total of 8 days. Twenty-four hours after the final oral administration, an autopsy was performed to remove a sample of liver tissue and fix it, thus preparing a tissue specimen. After preparation of tissue specimen slides. H & E staining was performed, and liver tissue injury as well as inflammatory cell infiltration in liver tissue were confirmed by microscopy. […]

[4] = tested on: LC3-II in primary hepatocytes; assay: Autophagy activation: LC3-II Western immunoblotting in primary hepatocytes, ischemia-reperfusion model; format: cell-based, C57BL/6 mice; details: FIG. 1, FIG. 2
Protocol: Primary hepatocyte was isolated from male C57BL/6 mice by a collagenase perfusion method which is a known method (Gastroenterology 2011, 141, 2188). Survival rate of the isolated cells was measured by trypan blue exclusion method. Autophagy was induced by ischemia-reperfusion method (Gastroenterology 2011, 141, 2188).
Specifically, in order to induce ischemia, hepatocytes were incubated at 37° C. in Krebs-Ringer-HEPES (KRH0) buffer (pH 6.2) in an anaerobic chamber for 2 hours. The respective hepatocytes were treated with DMSO, the compound prepared in Examples described above, or Rapamycin as a control substance, and then KRH buffer solution at pH 7.4 was treated under aerobic conditions for 1 hour to induce reperfusion. […] The amount of protein was measured with bovine serum albumin as a protein standard using Bio-Rad Protein Assay Kit (Cat No. 500-0002). […] Then, bands were measured using ECL (Enhanced Chemiluminescence, Thermo Scientific, Cat No. 34080). […]
The amount of LC3-II increased by the compound treatment was quantified by measuring the band density, and then compared with the amount of LC3-II increased by the treatment of Rapamycin used as a control substance, and the comparison values are shown in Table 1.

mTOR = mTOR enzyme activity: p-mTOR (Ser 2448) Western immunoblotting in hepatocyte ischemia-reperfusion model; format: cell-based, C57BL/6 mice; details: hepatocytes, FIG. 3
Protocol: Western immunoblotting was performed using the cell-disrupted liquid obtained in Experimental Example 1. The PVDF membrane obtained from electrophoresis and electroblotting was placed in a TBS-tween solution containing an antibody against mTOR or p-mTOR (Ser 2448) proteins (Cell Signaling), allowed to stand at 4° C. for 12 hours, and then labeled with a secondary antibody labeled with HRP (Horseradish Peroxidase, Sigma Co., Cat No. P0889). Then, bands were measured using ECL (Enhanced Chemiluminescence, Thermo Scientific, Cat No. 34080).
The measurement results are shown in FIG. 3. mTOR is known to be one of the major proteins regulating autophagy. mTOR serves to inhibit autophagy at a quiescent state, whereas phosphorylation at serine 2448-position inhibits the function of mTOR, resulting in activation of autophagy.

[5] = tested on: liver fibrosis induced by bile duct ligation; assay: Model of liver fibrosis induced by bile duct ligation (BDL); format: in vivo, Sprague Dawley (SD) rats; details: BDL rats; 12.5, 25 and 50 mg/kg orally once a day for 14 days; FIG. 13
Protocol: In order to confirm the effect of inhibiting liver fibrosis caused by chronic liver injury, bile duct ligation (BDL) was performed in Sprague Dawley (SD) rats to induce chronic liver injury, thereby inducing liver fibrosis, and then the compounds according to the present invention were administered. It was then confirmed whether chronic liver injuries were inhibited.
Seven-week-old female SD rats were introduced and acclimated for one week, and then divided into five groups respectively; a control group, a bile duct ligation surgery group, and groups to which the compound according to the present invention (Example 15) was administered at three doses (12.5, 25 and 50 mg/kg body weight). In the control group, the bile duct was not exposed or ligated after laparotomy, and the other groups performed bile duct ligation surgery. One week after bile duct ligation, the compound according to the present invention (Example 1) was dissolved in corn oil and administered orally for each dose once a day for a total of 14 days. […] In addition, a part of the removed liver (10 mg) was decomposed to perform a quantitative experiment of hydroxyproline which is a major component of collagen, and the amount of collagen deposited was quantified, thereby confirming the effects of the compound according to the present invention.

Row | SMILES | liver injury, H & E staining [1] | liver fibrosis, Masson's Trichrome staining [2] | liver fibrosis (collagen deposition), Masson's Trichrome staining [3] | increase in LC3-II (autophagy induction), Western immunoblotting [4] | phosphorylation of mTOR at serine 2448 position (mTOR) | collagen deposition, Example 1 compared with Example 5 ([2]; CCl4 fibrosis model, Masson's Trichrome staining) | collagen deposition, quantitative experiment of hydroxyproline in liver tissue [5]
1 | COc1ccc(-c2ccc(C(=O)Nc3ccccc3)s2)cc1OC [Example 7, 5-(3,4-dimethoxyphenyl)-N-phenylthiophene-2-carboxamide] | recovery effect of liver injury was relatively small | – | – | – | – | – | –
2 | CC(C)CNC(=O)c1ccc(-c2ccc3c(c2)OCO3)s1 [Example 5, 5-(benzo[d][1,3]dioxol-5-yl)-N-isobutylthiophene-2-carboxamide] | liver injury was clearly recovered | fibrosis was alleviated | fibrosis was clearly alleviated | significant increase in autophagy induction | – | – | –
3 | CC(C)NC(=O)c1ccc(-c2ccc3c(c2)OCO3)s1 [Example 2, 5-(benzo[d][1,3]dioxol-5-yl)-N-isopropylthiophene-2-carboxamide] | recovery effect of liver injury was relatively small | – | fibrosis was clearly alleviated | – | – | – | –
4 | COc1ccc(-c2ccc(C(=O)NC(C)C)s2)cc1OC [Example 1, 5-(3,4-dimethoxyphenyl)-N-isopropylthiophene-2-carboxamide] | liver injury was clearly recovered | fibrosis was alleviated | – | significant increase in autophagy induction | significantly inhibited | collagen deposition was less | the smaller the collagen deposition
